Results: publication PMC8523698, “Preclinical characterization of an intravenous coronavirus 3CL protease inhibitor for the potential treatment of COVID19” (Nature Communications, 2021)
Several values for one entry are separate records, joined by “and”; a condition that tells them apart may be missing. Equal values may be shown once. Read-outs that look alike come from different tables or passages of the source.

What was measured:
HKU1-CoV 3CL^pro = HKU1-CoV 3CL^pro (Human coronavirus HKU1, UniProt P0C6X2); test: biochemical
HKU1-CoV 3CL^pro, sequence (P0C6X2 3335-3637): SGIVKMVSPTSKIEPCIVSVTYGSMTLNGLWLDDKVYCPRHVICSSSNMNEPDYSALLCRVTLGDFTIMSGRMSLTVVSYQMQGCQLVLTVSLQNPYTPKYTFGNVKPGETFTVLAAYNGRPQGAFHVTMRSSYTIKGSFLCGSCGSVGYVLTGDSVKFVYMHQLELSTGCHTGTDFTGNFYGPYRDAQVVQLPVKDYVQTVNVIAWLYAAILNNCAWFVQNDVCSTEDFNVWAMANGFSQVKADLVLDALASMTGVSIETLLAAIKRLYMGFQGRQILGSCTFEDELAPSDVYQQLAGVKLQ

[1] = Liver microsome binding by equilibrium dialysis; details: for fraction unbound at 6 h: human, human liver microsomes, fu
SARS-CoV-2 USA-WA1/2020 = test: Ad5-hACE2 SARS-CoV-2 mouse infection model; assay type: in vivo, BALB/c mice; details: 100 mg/kg BID from day 0; lungs day 3; individual mice
CYP2B6 = target: T1, CYP2B6 (Homo sapiens, UniProt P20813); test: Reversible CYP inhibition in human liver microsomes; assay type: in vitro ADME; details: for activity at 0.1 µM: pH 7.4, CYP 2B6, 0.1 µM; for activity at 0.1 µM / activity at 0.214 µM / activity at 0.979 µM / activity at 2.09 µM / activity at 4.48 µM / activity at 20.5 µM / activity at 43.8 µM / activity at 93.5 µM / activity at 200 µM: read-out: Percent of Control Activity; for activity at 0.214 µM: pH 7.4, CYP 2B6, 0.214 µM; for activity at 0.979 µM: pH 7.4, CYP 2B6, 0.979 µM; for activity at 2.09 µM: pH 7.4, CYP 2B6, 2.09 µM; for activity at 4.48 µM: pH 7.4, CYP 2B6, 4.48 µM; for activity at 20.5 µM: pH 7.4, CYP 2B6, 20.5 µM; for activity at 43.8 µM: pH 7.4, CYP 2B6, 43.8 µM; for activity at 93.5 µM: pH 7.4, CYP 2B6, 93.5 µM; for activity at 200 µM: pH 7.4, CYP 2B6, 200 µM
T1 sequence (P20813 1-491): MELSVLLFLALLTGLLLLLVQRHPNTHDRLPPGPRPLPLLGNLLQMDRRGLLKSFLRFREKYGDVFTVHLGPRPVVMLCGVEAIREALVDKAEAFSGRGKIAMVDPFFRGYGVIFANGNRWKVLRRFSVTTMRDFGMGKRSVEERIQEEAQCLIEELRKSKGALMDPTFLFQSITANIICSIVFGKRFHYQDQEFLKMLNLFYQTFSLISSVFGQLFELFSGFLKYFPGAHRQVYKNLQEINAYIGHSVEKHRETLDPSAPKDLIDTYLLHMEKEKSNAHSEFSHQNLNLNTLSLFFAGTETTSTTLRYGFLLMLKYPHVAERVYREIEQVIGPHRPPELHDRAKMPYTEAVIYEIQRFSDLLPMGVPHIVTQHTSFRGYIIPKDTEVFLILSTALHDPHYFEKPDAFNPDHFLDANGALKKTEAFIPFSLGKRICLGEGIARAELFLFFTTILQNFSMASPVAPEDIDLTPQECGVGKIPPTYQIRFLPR

[2] = LogD shake-flask measurement at pH 7.4; details: 1-octanol/0.1 M sodium phosphate buffer
HKU4-CoV 3CL^pro = HKU4-CoV 3CL^pro (Bat coronavirus HKU4, UniProt P0C6W3); assay type: biochemical; details: for Initial Velocity: triplicate, listed as Compound F2
HKU4-CoV 3CL^pro, sequence (P0C6W3 3292-3597 limits assumed): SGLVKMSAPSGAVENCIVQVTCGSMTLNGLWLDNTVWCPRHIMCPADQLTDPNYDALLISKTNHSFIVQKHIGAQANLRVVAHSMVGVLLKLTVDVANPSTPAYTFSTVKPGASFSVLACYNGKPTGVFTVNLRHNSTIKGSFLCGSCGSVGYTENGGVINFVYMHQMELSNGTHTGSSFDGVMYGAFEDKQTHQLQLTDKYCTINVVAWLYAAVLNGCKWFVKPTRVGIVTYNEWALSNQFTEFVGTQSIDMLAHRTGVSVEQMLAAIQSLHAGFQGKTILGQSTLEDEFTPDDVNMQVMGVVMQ

HKU5-CoV 3CL^pro = HKU5-CoV 3CL^pro (Bat coronavirus HKU5, UniProt P0C6W4); assay type: biochemical; details: for Initial Velocity: triplicate, listed as Compound F2
HKU5-CoV 3CL^pro, sequence (P0C6W4 3339-3644 limits assumed): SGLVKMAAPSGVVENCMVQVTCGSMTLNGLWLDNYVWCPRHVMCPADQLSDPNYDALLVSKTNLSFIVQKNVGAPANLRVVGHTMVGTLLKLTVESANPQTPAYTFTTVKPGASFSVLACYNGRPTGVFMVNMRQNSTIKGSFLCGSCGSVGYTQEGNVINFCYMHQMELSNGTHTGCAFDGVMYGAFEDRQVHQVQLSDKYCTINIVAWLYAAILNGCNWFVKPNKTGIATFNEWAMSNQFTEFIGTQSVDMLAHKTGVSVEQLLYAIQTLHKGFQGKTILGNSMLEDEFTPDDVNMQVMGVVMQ

SARS-CoV-2 = test: microbe, parasite or virus in culture; assay type: cell-based; details: Severe acute respiratory syndrome coronavirus 2, Vero C1008; N=3; read-out: EC50 ± Std. Dev
[3] = human, human liver microsomes, 30-Minute Preincubation
[4] = human, human liver microsomes, Zero-Minute Preincubation

In the case of `COc1cccc2[nH]c(C(=O)N[C@@H](CC(C)C)C(=O)N[C@@H](C[C@@H]3CCNC3=O)C(=O)CO)cc12` [PF-00835231], the Ki (HKU1-CoV 3CL^pro) is reported as 0.85 ± 0.24 nM, the “fu, human liver microsomal binding” value ([1]; Microsomal protein 0.806mg/ml, individual replicates) is reported as 0.70 and 0.77 and the HLM microsomal binding ([1]; clearance input) is reported as 0.75. It also gave a fraction unbound at 6 h ([1]; human liver microsomal binding, Geomean, Microsomal protein 0.806mg/ml) of 0.75, a fraction unbound at 6 h ([1]; human liver microsomal binding, Microsomal protein 0.806mg/ml, individual replicates) of 0.84 and a fraction unbound at 6 h ([1]; microsomal protein 0.806mg/ml, individual replicates n=1-4) of 0.7. For the same compound, the Lung viral titers (SARS-CoV-2 USA-WA1/2020) was 160 IU/mL and 240 IU/mL and 110 IU/mL and 3500 IU/mL and 1600 IU/mL and 1100 IU/mL, the “Percent of Control Activity” value (CYP2B6; CYP 2B6, 0.1 µM, 30-Minute Preincubation, 0.1 µM) was 95.8% and the “Percent of Control Activity” value (CYP2B6; CYP 2B6, 0.1 µM, Zero-Minute Preincubation, 0.1 µM) was 102.2% and 99.6%. The “Percent of Control Activity” value (CYP2B6; CYP 2B6, 0.214 µM, 30-Minute Preincubation, 0.214 µM) was 99.2% and 94.6%, the “Percent of Control Activity” value (CYP2B6; CYP 2B6, 0.214 µM, Zero-Minute Preincubation, 0.214 µM) was 97.5% and 98.9% and the “Percent of Control Activity” value (CYP2B6; CYP 2B6, 0.979 µM, 30-Minute Preincubation, 0.979 µM) was 92.8% and 97.7%. For the same compound, the “Percent of Control Activity” value (CYP2B6; CYP 2B6, 0.979 µM, Zero-Minute Preincubation, 0.979 µM) was 99.5% and 102.1%, the “Percent of Control Activity” value (CYP2B6; CYP 2B6, 2.09 µM, Zero-Minute Preincubation, 2.09 µM) was 101.6% and the “Percent of Control Activity” value (CYP2B6; CYP 2B6, 4.48 µM, 30-Minute Preincubation, 4.48 µM) was 102.3% and 98.3%. The “Percent of Control Activity” value (CYP2B6; CYP 2B6, 4.48 µM, Zero-Minute Preincubation, 4.48 µM) was 96.6%, the “Percent of Control Activity” value (CYP2B6; CYP 2B6, 20.5 µM, 30-Minute Preincubation, 20.5 µM) was 88.5% and 89.3% and the “Percent of Control Activity” value (CYP2B6; CYP 2B6, 20.5 µM, Zero-Minute Preincubation, 20.5 µM) was 90.2% and 87.9%. For the same compound, the “Percent of Control Activity” value (CYP2B6; CYP 2B6, 43.8 µM, 30-Minute Preincubation, 43.8 µM) was 89.3% and 86.6%, the “Percent of Control Activity” value (CYP2B6; CYP 2B6, 43.8 µM, Zero-Minute Preincubation, 43.8 µM) was 84.2% and 79.6% and the “Percent of Control Activity” value (CYP2B6; CYP 2B6, 93.5 µM, 30-Minute Preincubation, 93.5 µM) was 69.4% and 77.3%. For the same compound, the “Percent of Control Activity” value (CYP2B6; CYP 2B6, 93.5 µM, Zero-Minute Preincubation, 93.5 µM) was 73.2% and 72.0%, the “Percent of Control Activity” value (CYP2B6; CYP 2B6, 200 µM, 30-Minute Preincubation, 200 µM) was 59.5% and 60.0% and the “Percent of Control Activity” value (CYP2B6; CYP 2B6, 200 µM, Zero-Minute Preincubation, 200 µM) was 54.6% and 55.4%. The activity at 0.1 µM (CYP2B6; [3]) was 102%, the activity at 0.1 µM (CYP2B6; [4]) was 104% and the activity at 0.214 µM (CYP2B6; [3]) was 103%. The activity at 0.214 µM (CYP2B6; [4]) was 103%, the activity at 0.979 µM (CYP2B6; [3]) was 100% and the activity at 0.979 µM (CYP2B6; [4]) was 105%. The activity at 2.09 µM (CYP2B6; [3]) was 101%, the activity at 2.09 µM (CYP2B6; [4]) was 105% and the activity at 4.48 µM (CYP2B6; [3]) was 103%. The activity at 4.48 µM (CYP2B6; [4]) was 100%, the activity at 20.5 µM (CYP2B6; [3]) was 91.3% and the activity at 20.5 µM (CYP2B6; [4]) was 91.9%. The activity at 43.8 µM (CYP2B6; [3]) was 87.1%, the activity at 43.8 µM (CYP2B6; [4]) was 86.4% and the activity at 93.5 µM (CYP2B6; [3]) was 73.5%. For the same compound, the activity at 93.5 µM (CYP2B6; [4]) was 73.7%, the activity at 200 µM (CYP2B6; [3]) was 59% and the activity at 200 µM (CYP2B6; [4]) was 55.5%. For the same compound, the IC50 (CYP2B6; human, human liver microsomes, pH 7.4, probe bupropion (hydroxylation), at approximately KM) was > 200000 nM, the logD at 1 h [2] was 1.7 and the “Initial Velocity” value (HKU4-CoV 3CL^pro; [Compound F2] 1.95312 nM) was 0.9709 and 0.9956 and 0.9685. For the same compound, the “Initial Velocity” value (HKU4-CoV 3CL^pro; [Compound F2] 3.90625 nM) was 0.9706 and 0.9741 and 0.9413, the “Initial Velocity” value (HKU4-CoV 3CL^pro; [Compound F2] 7.8125 nM) was 0.919 and 0.9344 and 0.9288 and the “Initial Velocity” value (HKU4-CoV 3CL^pro; [Compound F2] 20 nM) was 0.7972 and 0.7875 and 0.7775. For the same compound, the “Initial Velocity” value (HKU4-CoV 3CL^pro; [Compound F2] 30 nM) was 0.5859 and 0.5869 and 0.5914, the “Initial Velocity” value (HKU4-CoV 3CL^pro; [Compound F2] 40 nM) was 0.342 and 0.3124 and 0.3465 and the “Initial Velocity” value (HKU4-CoV 3CL^pro; [Compound F2] 50 nM) was 0.1072 and 0.09971 and 0.1255. For the same compound, the “Initial Velocity” value (HKU4-CoV 3CL^pro; [Compound F2] 60 nM) was 0.03996 and 0.02999 and 0.0446, the “Initial Velocity” value (HKU4-CoV 3CL^pro; [Compound F2] 80 nM) was 0.0186 and 0.01858 and 0.02101 and the “Initial Velocity” value (HKU4-CoV 3CL^pro; [Compound F2] 100 nM) was 0.01432 and 0.02363 and 0.01328. The “Initial Velocity” value (HKU4-CoV 3CL^pro; [Compound F2] 400 nM) was 0.004976 and 0.003329 and 0.004577, the Ki (HKU4-CoV 3CL^pro; mean ± SEM) was 0.034 ± 0.079 nM and the “Initial Velocity” value (HKU5-CoV 3CL^pro; [Compound F2] 1.95312 nM) was 0.9802 and 1.028 and 0.9544. The “Initial Velocity” value (HKU5-CoV 3CL^pro; [Compound F2] 3.90625 nM) was 0.9722 and 0.992 and 0.9888, the “Initial Velocity” value (HKU5-CoV 3CL^pro; [Compound F2] 7.8125 nM) was 0.8869 and 0.9497 and 0.9402 and the “Initial Velocity” value (HKU5-CoV 3CL^pro; [Compound F2] 20 nM) was 0.7838 and 0.8106 and 0.827. For the same compound, the “Initial Velocity” value (HKU5-CoV 3CL^pro; [Compound F2] 30 nM) was 0.6911 and 0.6076 and 0.6927, the “Initial Velocity” value (HKU5-CoV 3CL^pro; [Compound F2] 31.25 nM) was 0.6277 and 0.6613 and 0.6251 and the “Initial Velocity” value (HKU5-CoV 3CL^pro; [Compound F2] 40 nM) was 0.5119 and 0.5104 and 0.5524. For the same compound, the “Initial Velocity” value (HKU5-CoV 3CL^pro; [Compound F2] 50 nM) was 0.32 and 0.3287 and 0.3636, the “Initial Velocity” value (HKU5-CoV 3CL^pro; [Compound F2] 62.5 nM) was 0.1843 and 0.2599 and 0.2229 and the “Initial Velocity” value (HKU5-CoV 3CL^pro; [Compound F2] 80 nM) was 0.01707 and 0.01468 and 0.01576. The “Initial Velocity” value (HKU5-CoV 3CL^pro; [Compound F2] 100 nM) was 0.01024 and 0.007665 and 0.009516, the “Initial Velocity” value (HKU5-CoV 3CL^pro; [Compound F2] 200 nM) was 0.003343 and 0.002684 and 0.002549 and the “Initial Velocity” value (HKU5-CoV 3CL^pro; [Compound F2] 300 nM) was 0.000987 and 0.001807 and 0.00196. For the same compound, the “Initial Velocity” value (HKU5-CoV 3CL^pro; [Compound F2] 400 nM) was 0.002007 and 0.00134 and 0.002594, the Ki (HKU5-CoV 3CL^pro; mean ± SEM) was 0.033 nM and the EC50 (SARS-CoV-2) was 60 ± 30 nM.
